Common to all, as to format: cell-based
In one data set the test system is HCV Replicon 1B. Kind of data set: HCV Replicon 1B EC50 (Example Q). To be noted: Hepatitis C virus, 72 h, read-out: HCV Replicon 1B EC50 (nM) (per Ex. Q). The method, then:
(§1) Compounds were serially diluted in ten steps of 1:3 dilutions in 384-well plates. All serial dilutions were performed in four replicates per compound within the same 384-well plate. An HCV protease inhibitor ITMN-191 at […] was added as a control of 100% inhibition of HCV replication while puromycin at 10 mM was included as a control of 100% cytotoxicity. To each well of a black polystyrene 384-well plate (Greiner Bio-one, Monroe, NC), 90 μL of cell culture medium (without Geneticin) containing 2000 suspended HCV replicon cells was added with a Biotek μFlow workstation. For compound transfer into cell culture plates, 0.4 μL of compound solution from the compound serial dilution plate was transferred to the cell culture plate on a Biomek FX workstation. The DMSO concentration in the final assay wells was 0.44%. The plates were incubated for 3 days at 37° C. with 5% CO2 and 85% humidity. The HCV replicon assay was a multiplex assay, able to assess both cytotoxicity and antireplicon activity from the same well. The CC50 assay was performed first. The media in the 384-well cell culture plate was aspirated, and the wells were washed four times with 100 μL of PBS each, using a Biotek ELX405 plate washer. A volume of 50 μL of a solution containing 400 nM calcein AM (Anaspec, Fremont, CA) in 1×PBS was added to each well of the plate with a Biotek μFlow workstation. The plate was incubated for 30 min at room temperature before the fluorescence signal (excitation 490 nm, emission 520 nm) was measured with a Perkin-Elmer Envision plate reader. The EC50 assay was performed in the same wells as the CC50 assay. The calcein-PBS solution in the 384-well cell culture plate was aspirated with a Biotek ELX405 plate washer. A volume of 20 μL of Dual-Glo luciferase buffer (Promega, Madison, WI) was added to each well of the plate with a Biotek μFlow Workstation. The plate was incubated for 10 min at room temperature. A volume of 20 μL of a solution containing a 1:100 mixture of Dual-Glo Stop & Glo substrate (Promega, Madison, WI) and Dual-Glo Stop & Glo buffer (Promega, Madison, WI) was added to each well of the plate with a Biotek μFlow Workstation. The plate was then incubated at room temperature for 10 min before the luminescence signal was measured with a Perkin-Elmer Envision Plate Reader.

The subject of the next data set is HCV Replicon 2A. Kind of data set: HCV Replicon 2A EC50 (Example Q). The conditions noted are these: Hepatitis C virus, 72 h, read-out: HCV Replicon 2A EC50 (nM) (per Ex. Q). As for the experimental part:
as §1
In general terms: In antiviral work, replicon cells carry a viral genome segment that copies itself.

Data set [1] is described as follows: HCV Replicon 1B CC50, calcein AM (Example Q). The conditions noted are these: calcein AM fluorescence, read-out: HCV Replicon 1B CC50 (nM) (per Ex. Q). The method, then: as §1
A short description of data set [2]: HCV Replicon 2A CC50, calcein AM (Example Q). To be noted: calcein AM fluorescence, read-out: HCV Replicon 2A CC50 (nM) (per Ex. Q). As for the experimental part: as §1
The nature of a further data set: in vitro. The conditions noted are these: human. The method, then:
H1-HeLa cell viability was measured using the CellTiter-Glo® Luminescent Cell Viability Assay kit (Promega, Cat #G7573) according to the manufacturer's protocol. H1-HeLa cells were maintained in Dulbecco's Modified Eagle's Medium with high glucose (Gibco, Cat #: 11995073) supplemented with 10% FBS (HyClone, Cat #: SH303396.03), 100 units/mL penicillin and 100 µg/mL streptomycin (Gibco, Cat #: 15140122). One day before compound treatment, H1-HeLa cells were seeded at […] into 96-well plates (Corning, Cat #3904) in Opti-MEM (Gibco, Cat #: 31985070) supplemented with 2% FBS, and were incubated at 37° C. in a 100% humid atmosphere containing 5% (v/v) CO2. After overnight incubation, the cells were treated with three-fold serial dilutions of the compound. At 96 hours post treatment, CellTiter-Glo reagents were added into each well and luminescence signals were recorded by an EnVision plate reader. The relative cell viability was calculated by normalizing the absorbance of the compound-treated groups to that of the DMSO-treated groups (set as 100% viability) and 10 μM puromycin treated groups (set as 0% viability). The CC50 (compound concentration for reducing 50% of cell viability) was calculated using a nonlinear regression model (four parameters).

The mark [3] stands for this setting: HCV replicon cells, 3 days, Dual-Glo luciferase.

Read-outs that look alike come from different tables or passages of the source.

Broadly, the EC50 is the concentration at which the effect is half-maximal. A word on the CC50: it is the concentration at which the toxic effect on the cells reaches its halfway point. For the molecule `CCCCCCCCCCCCCCCCCCOC[C@H](COP(=O)(O)OC[C@@]1(C#N)O[C@@H](c2ccc3c(N)ncnn23)[C@H](O)[C@@H]1O)OCc1cc(F)cc(C#N)c1` [Compound 1, ((2R,3S,4R,5S)-5-(4-aminopyrrolo[2,1-f][1,2,4]triazin-7-yl)-2-cyano-3,4-dihydroxytetrahydrofuran-2-yl)methyl ((R)-2-((3-cyano-5-fluorobenzyl)oxy)-3-(octadecyloxy)propyl) hydrogen phosphate], the EC50 in the data set on HCV Replicon 1B (setting [3]) amounted to 13800 nM; with HCV Replicon 2A (setting [3]) it was 20600 nM. In addition, the CC50 at 3 days in data set [1] (HCV replicon cells (1B)) and in data set [2] (HCV replicon cells (2A)) was more than 44400 nM each time. The CC50 at 96 h in the data set “in vitro” was found to be 3.62 µM.
As for `CCCCCCCCCCCCCCCCCCOC[C@H](COP(=O)(O)OC[C@@]1(C#N)O[C@@H](c2ccc3c(N)ncnn23)[C@H](O)[C@@H]1O)OCc1ccc(C#N)c(Cl)c1` [Compound 7, ((2R,3S,4R,5S)-5-(4-aminopyrrolo[2,1-f][1,2,4]triazin-7-yl)-2-cyano-3,4-dihydroxytetrahydrofuran-2-yl)methyl ((R)-2-((3-chloro-4-cyanobenzyl)oxy)-3-(octadecyloxy)propyl) hydrogen phosphate], the EC50 in the data set with HCV Replicon 1B (setting [3]) was found to be 16700 nM; in the data set with HCV Replicon 2A (setting [3]), 30600 nM. Moreover, the CC50 at 3 days in data set [1] (HCV replicon cells (1B)) and in data set [2] (HCV replicon cells (2A)) was more than 44400 nM in each case. Moreover, half-maximal cytotoxicity in the data set “in vitro” (CC50 at 96 h) was put at 3.88 µM.
As for `CCCCCCCCCCCCCCCCCCC[C@H](COP(=O)(O)OC[C@@]1(C#N)O[C@@H](c2ccc3c(N)ncnn23)[C@H](O)[C@@H]1O)OCc1ccc(-n2cncn2)c(C#N)c1` [Compound 30, ((2R,3S,4R)-5-(4-aminopyrrolo[2,1-f][1,2,4]triazin-7-yl)-2-cyano-3,4-dihydroxytetrahydrofuran-2-yl)methyl ((R)-2-((3-cyano-4-(1H-1,2,4-triazol-1-yl)benzyl)oxy)henicosyl) hydrogen phosphate], the EC50 in the data set on HCV Replicon 1B is 3990 nM; in the data set with HCV Replicon 2A it was 15800 nM. Also, the CC50 at 3 days in data set [1] (HCV replicon cells) was more than 44400 nM; in data set [2] (HCV replicon cells), 42400 nM. This molecule came in with a CC50 at 96 h in “in vitro” of 4.96 µM.
The matching figures for `CCCCCCCCCCCCCCCCC[C@H](COP(=O)(O)OC[C@@]1(C#N)O[C@@H](c2ccc3c(N)ncnn23)[C@H](O)[C@@H]1O)OCc1cc(F)cc(C#N)c1` [Compound 36, ((2R,3S,4R,5S)-5-(4-aminopyrrolo[2,1-f][1,2,4]triazin-7-yl)-2-cyano-3,4-dihydroxytetrahydrofuran-2-yl)methyl ((R)-2-((3-cyano-5-fluorobenzyl)oxy)nonadecyl) hydrogen phosphate]: 26300 nM, 21800 nM, more than 44400 nM, more than 44400 nM and 9.56 µM.
As to `CCCCCCCCCCCCCCCCCCOC[C@H](COP(=O)(O)OC[C@@]1(C#N)O[C@@H](c2ccc3c(N)ncnn23)[C@H](O)[C@@H]1O)OCc1cccc(C#N)n1` [Compound 68, ((2R,3S,4R)-5-(4-aminopyrrolo[2,1-f][1,2,4]triazin-7-yl)-2-cyano-3,4-dihydroxytetrahydrofuran-2-yl)methyl ((R)-2-((6-cyanopyridin-2-yl)methoxy)-3-(octadecyloxy)propyl) hydrogen phosphate], the EC50 in the data set with HCV Replicon 1B is 11500 nM; in the data set with HCV Replicon 2A, 15200 nM. Besides, the CC50 at 3 days in data set [1] (HCV replicon cells) and in data set [2] (HCV replicon cells) was more than 44400 nM throughout. The molecule also registered a CC50 at 96 h in the data set “in vitro” of 8.71 µM.
`CCCCCCCCCCCCCCCCCCCC[C@@H](COP(=O)(O)OC[C@@]1(C#N)O[C@@H](c2ccc3c(N)ncnn23)[C@H](O)[C@@H]1O)OCc1cc(F)cc(C#N)c1` [Compound 70, ((2R,3S,4R)-5-(4-aminopyrrolo[2,1-f][1,2,4]triazin-7-yl)-2-cyano-3,4-dihydroxytetrahydrofuran-2-yl)methyl ((S)-2-((3-cyano-5-fluorobenzyl)oxy)docosyl) hydrogen phosphate]: the EC50 was determined as 19600 nM in the data set with HCV Replicon 1B and 25200 nM with HCV Replicon 2A. Also, the CC50 at 3 days in data set [1] (HCV replicon cells) is more than 44400 nM; in data set [2] (HCV replicon cells), 42700 nM.
In the case of `CCCCCCCCCCCCCCCCCCOC[C@@H](COP(=O)(O)OC[C@@]1(C#N)O[C@@H](c2ccc3c(N)ncnn23)[C@H](O)[C@@H]1O)Oc1ccc(C#N)nc1` [Compound 72, ((2R,3S,4R,5S)-5-(4-aminopyrrolo[2,1-f][1,2,4]triazin-7-yl)-2-cyano-3,4-dihydroxytetrahydrofuran-2-yl)methyl ((S)-2-((6-cyanopyridin-3-yl)oxy)-3-(octadecyloxy)propyl) hydrogen phosphate], the concentration for a half-maximal effect (EC50) was 465 nM in the data set with HCV Replicon 1B and more than 44400 nM with HCV Replicon 2A. Also, the CC50 at 3 days in data set [1] (HCV replicon cells) and in data set [2] (HCV replicon cells) was more than 44400 nM in each case. Moreover, the CC50 at 96 h in the data set “in vitro” worked out at 5.1 µM.
Regarding `CCCCCCCCCCCCCCCCCCOC[C@H](COP(=O)(O)OC[C@@]1(C#N)O[C@@H](c2ccc3c(N)ncnn23)[C@H](O)[C@@H]1O)OCc1ccc(C#N)cc1OC` [Compound 73, ((2R,3S,4R)-5-(4-aminopyrrolo[2,1-f][1,2,4]triazin-7-yl)-2-cyano-3,4-dihydroxytetrahydrofuran-2-yl)methyl ((R)-2-((4-cyano-2-methoxybenzyl)oxy)-3-(octadecyloxy)propyl) hydrogen phosphate], the EC50 in the data set with HCV Replicon 1B (setting [3]) is 15900 nM; with HCV Replicon 2A (setting [3]), 20400 nM. Further, the CC50 at 3 days in data set [1] (HCV replicon cells (1B)) and in data set [2] (HCV replicon cells (2A)) was more than 44400 nM each time.
As to `CCCCCCCCCCCCCCCCC[C@@H](COP(=O)(O)OC[C@@]1(C#N)O[C@@H](c2ccc3c(N)ncnn23)[C@H](O)[C@@H]1O)OCc1cc(F)cc(C#N)c1` [Compound 74, ((2R,3S,4R)-5-(4-aminopyrrolo[2,1-f][1,2,4]triazin-7-yl)-2-cyano-3,4-dihydroxytetrahydrofuran-2-yl)methyl ((S)-2-((3-cyano-5-fluorobenzyl)oxy)nonadecyl) hydrogen phosphate], the EC50 in the data set with HCV Replicon 1B was 26200 nM; with HCV Replicon 2A, 22800 nM. The results for the CC50 at 3 days in data set [1] (HCV replicon cells) and in data set [2] (HCV replicon cells) were more than 44400 nM and 35800 nM, respectively.
Regarding `CCCCCCCCCCCCCCCC[C@H](COP(=O)(O)OC[C@@]1(C#N)O[C@@H](c2ccc3c(N)ncnn23)[C@H](O)[C@@H]1O)OCc1cc(F)cc(C#N)c1` [Compound 78, ((2R,3S,4R,5S)-5-(4-aminopyrrolo[2,1-f][1,2,4]triazin-7-yl)-2-cyano-3,4-dihydroxytetrahydrofuran-2-yl)methyl ((R)-2-((3-cyano-5-fluorobenzyl)oxy)octadecyl) hydrogen phosphate], the EC50 is 27600 nM in the data set with HCV Replicon 1B (setting [3]) and 18400 nM in the data set on HCV Replicon 2A (setting [3]). For the same molecule, the results for the CC50 at 3 days in data set [1] (HCV replicon cells (1B)) and in data set [2] (HCV replicon cells (2A)) were more than 44400 nM and 33800 nM, respectively.
